Data: patent publication US10059671B2, “Positive allosteric modulators of mGluR3” (Merck Patent GmbH, priority 2013, dated 2018)

biological target: mGluR3 (Homo sapiens, UniProt Q14832); assay: HEK293T-mGluR3-Gqi5 Calcium Mobilization Assay; format: cell-based; conditions: HEK293T-mGluR3-Gqi5 stable cell line; FLIPR Ca2+ fluorescence; with L-glutamate at EC20 concentration
Experimental: II. Biological Assays HEK293T-mGluR3-Gqi5 Calcium Mobilization Assay Reagents: • Cells: HEK293T-mGluR3-Gqi5 Stable Cell Line (MultiSpan cat# CG1190) Culture Medium: • DMEM-GlutaMAX-1 (GIBCO #10566)+10% FBS (dialyzed & heat-inactivated, Hyclone cat# SH 30079.03), 2 mM sodium pyruvate (GIBCO #11360), 1 μg/ml puromycin (GIBCO #0399) and 250 ug/ml hygromycin (GIBCO #10687-010) HBSS (GIBCO #14025), add HEPES at 20 mM for a pH of 7.4 • 384 well cell plate: poly-D-lysine-coated, black/clear bottom microplates (Corning cat#3845) • Ca^2+ dye: FLIPR Ca-4 assay kit (Molecular Devices cat# R8142) • L-Glutamate (Sigma cat #2834) Cell Plating • Plate 8000 cells per well (1×10^5 cells/ml, in 80 μl) in a black, clear bottom, 384 well plate (Corning 3845). Incubate the cell plate for 30 minutes at RT and then incubate the cells 37° C., 5% CO2 for 16-24 hours before the assay. Ca^2+ Assay Using the FLIPR • Wash the cells with HBSS 3 times using the Bravo automated pipettor. The remaining volume of HBSS is 20 μl per well. • Add 20 μl of dye loading solution to each well and incubate the cells at 37° C., 5% CO2 for 1 hour. Prepare Compound Plate: • Serial dilute test compounds in DMSO at a 1:4 ratio, starting at al 0 mM concentration. Transfer 500 nl of the diluted compounds to a Matrix plate and add 30 μl of 37° C. HBSS, by Multidrop, to each well. The final starting concentration of the compounds is 33 uM. Prepare a solution of L-Glutamate in HBSS at 5× the EC20 concentration. Transfer to a 384 well Matrix plate using a Multidrop. The EC20 concentration is determined by a test plate before the screen. Assay: • Ca^2+ fluorescence is measured in the cells using the FLIPR Tetra (Molecular Devices). Following a baseline recording of the wells for 1 minute, add 10 ul of the diluted (5×) compounds to the cell plate and record for 3 minutes.

Chain of mGluR3 (Q14832 23-879): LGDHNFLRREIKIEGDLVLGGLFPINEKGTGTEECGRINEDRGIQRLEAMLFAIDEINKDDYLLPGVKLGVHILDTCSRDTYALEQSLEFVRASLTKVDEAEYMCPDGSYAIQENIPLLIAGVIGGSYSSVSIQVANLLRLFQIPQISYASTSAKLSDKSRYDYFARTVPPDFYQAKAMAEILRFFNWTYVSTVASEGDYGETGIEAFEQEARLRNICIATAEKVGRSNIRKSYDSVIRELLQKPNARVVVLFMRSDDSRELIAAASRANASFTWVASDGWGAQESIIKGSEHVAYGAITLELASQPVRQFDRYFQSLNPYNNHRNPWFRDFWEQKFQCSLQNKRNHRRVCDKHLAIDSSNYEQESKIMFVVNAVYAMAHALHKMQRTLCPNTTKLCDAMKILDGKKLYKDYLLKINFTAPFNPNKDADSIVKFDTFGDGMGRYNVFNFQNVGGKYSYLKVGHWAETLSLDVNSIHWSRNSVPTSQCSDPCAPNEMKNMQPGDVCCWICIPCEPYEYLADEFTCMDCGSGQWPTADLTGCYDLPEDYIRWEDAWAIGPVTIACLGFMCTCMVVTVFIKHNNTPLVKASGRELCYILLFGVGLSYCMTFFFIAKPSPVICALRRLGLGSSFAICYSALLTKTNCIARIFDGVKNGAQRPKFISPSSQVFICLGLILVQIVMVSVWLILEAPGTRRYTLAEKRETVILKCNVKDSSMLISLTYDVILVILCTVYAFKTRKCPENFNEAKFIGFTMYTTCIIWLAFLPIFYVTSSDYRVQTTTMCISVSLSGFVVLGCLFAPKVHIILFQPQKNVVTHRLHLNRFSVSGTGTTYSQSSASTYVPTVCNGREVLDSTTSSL

| Structure (SMILES) | EC50 |
| --- | --- |
| CCCc1nc(NCCO)c(C#N)c2c1CCCC2 [Compound 6] | 1000 to 10000 nM |
| CCc1nc(NCCCO)c(C#N)c2c1CCCC2 [Compound 7] | 1000 to 10000 nM |
| CCc1nc(NCCN)c(C#N)c2c1CSC(C)(C)C2 [Compound 8] | 1000 to 10000 nM |
| CCCc1nc(N2CCOCC2)c(C#N)c2c1COC(C)(C)C2 [Compound 2] | 1000 to 10000 nM |
| CCCc1nc(NCCN2CCOCC2)c(C#N)c2c1CCCC2 [Compound 5] | 1000 to 10000 nM |
| CC(C)c1nc(N2CCOCC2)c(C#N)c2c1CCCC2 [Compound 1, 1-Isopropyl-3-morpholin-4-yl-5,6,7,8-tetrahydroisoquinoline-4-carbonitrile] | < 1000 nM |
| CCc1nc(N2CCOCC2)c(C#N)c2c1CCCC2 [Compound 3] | 1000 to 10000 nM |
| N#Cc1ccc(-c2ccccc2)nc1N1CCOCC1 [Compound 4] | 1000 to 10000 nM |
